Key:
cortical neuron cultures = assay: Inhibition of evoked activity (action potential trains evoked by current injection) in cortical neuron cultures; format: cell-based; details: FIG. 5
Experimental: Trains of action potentials were evoked by 30 pA current injections.
Simultaneous patch clamp studies are conducted to determine cellular responses in (1) cells expressing both opsin and luciferase (i.e. both components in cis) and (2) cells expressing […] (i.e. both components in trans). As an alternative to co-infection, one can also deliver luciferase and inhibitory opsin together as a fusion protein. Various molecular strategies can also be employed (such as adding dimerizing or transmembrane domains) to facilitate co-localization of the luciferase and inhibitory opsin to the cell membrane.

neuron = assay: Inhibition of evoked spikes in a neuron expressing eNpHR3.0-Nanolantern; format: cell-based; details: CTZ added

Molecule	effect on firing rate in control (uninfected) neurons (cortical neuron cultures)	luminescence signal during inhibition of evoked activity (neuron; FIG. 8 (top))	evoked action potentials after CTZ (neuron; sub-threshold depolarizing current injection, FIG. 8)
Oc1ccc(Cc2nc3c(Cc4ccccc4)nc(-c4ccc(O)cc4)cn3c2O)cc1 [CTZ, Coelenterazine, reference compound]	did not have any significant effect		
eNpHR3.0-Nanolantern: Fusion cassette of enhanced halorhodopsin eNpHR3.0 and Nanolantern, amino acid sequence SEQ ID NO: 11		increase in luminescence signal	completely attenuate evoked action potentials
